Data reported in ChEMBL document CHEMBL1144070, “Microbial transformation of sampangine” (1999).
Converted amounts (≈) assume the structure as drawn. The source made the active and inactive calls. The rule behind the calls is not given here.

Legend:
[1] = system: Candida albicans; test: Antifungal activity against Candida albicans NIH B311 after 24 hrs by agar well diffusion method; format: functional
[2] = system: Cryptococcus neoformans; test: Antifungal activity against Cryptococcus neoformans infected in Swiss ICR mouse assessed as lethality at 50 mg/kg, ip administered 24 hrs post infection for 12 days; format: functional, organism-based; design: dose 50 mg/kg
[3] = system: Cryptococcus neoformans; test: Antifungal activity against Cryptococcus neoformans ATCC 52657 after 48 hrs by agar well diffusion method; format: functional; settings: ATCC 52657, 48 h

Structure (SMILES) | Activity [1] | Activity [2] | MIC [3] [mg/L] | MIC [1] [mg/L]
OC[C@H]1O[C@@H](Oc2c3c4c(ccnc4c4ccccc24)C=CN3)[C@H](O)[C@@H](O)[C@@H]1O | inactive | inactive | 0.78 (≈ 1.97 µM) | –
CO[C@H]1[C@H](O)[C@@H](O)[C@H](Oc2c3c4c(ccnc4c4ccccc24)C=CN3)O[C@@H]1CO | inactive | – | 0.2 (≈ 0.487 µM) | –
O=C1c2ccccc2-c2nccc3ccnc1c23 [SAMPANGINE] | – | – | 0.2 (≈ 0.861 µM) | 3.12 (≈ 13.4 µM)
